Measurements: US20040063662A1, “Selenophene anti-tumor agents” (priority 1996, published 2004)

Columns and labels:
MOLT-4 = assay: NCI human tumor cell panel: MOLT-4 (Leukemia); format: cell-based
OVCAR-3 = assay: NCI human tumor cell panel: OVCAR-3 (Ovarian Cancer); format: cell-based
RPMI-8226 = assay: NCI human tumor cell panel: RPMI-8226 (Leukemia); format: cell-based
SNB-75 = assay: NCI human tumor cell panel: SNB-75 (CNS Cancer); format: cell-based
TK-10 = assay: NCI human tumor cell panel: TK-10 (Renal Cancer); format: cell-based; details: TK-10, read-out: Log10 GI50 (converted)
A498 = assay: NCI human tumor cell panel: A498 (Renal Cancer); format: cell-based
SF-539 = assay: NCI human tumor cell panel: SF-539 (CNS Cancer); format: cell-based
M14 = assay: NCI human tumor cell panel: M14 (Melanoma); format: cell-based
IGROV1 = assay: NCI human tumor cell panel: IGROV1 (Ovarian Cancer); format: cell-based
NCI-H23 = assay: NCI human tumor cell panel: NCI-H23 (Non-Small Cell Lung Cancer); format: cell-based
LOX IMVI = assay: NCI human tumor cell panel: LOX IMVI (Melanoma); format: cell-based
SF-295 = assay: NCI human tumor cell panel: SF-295 (CNS Cancer); format: cell-based
NCI-H522 = assay: NCI human tumor cell panel: NCI-H522 (Non-Small Cell Lung Cancer)
SK-MEL-2 = assay: NCI human tumor cell panel: SK-MEL-2 (Melanoma); format: cell-based
OVCAR-8 = assay: NCI human tumor cell panel: OVCAR-8 (Ovarian Cancer); format: cell-based
UO-31 = assay: NCI human tumor cell panel: UO-31 (Renal Cancer); format: cell-based
HCT-116 = assay: NCI human tumor cell panel: HCT-116 (Colon Cancer); format: cell-based
ACHN = assay: NCI human tumor cell panel: ACHN (Renal Cancer); format: cell-based
SW-620 = assay: NCI human tumor cell panel: SW-620 (Colon Cancer); format: cell-based
MDA-MB-435 = assay: NCI human tumor cell panel: MDA-MB-435 (Breast Cancer); format: cell-based
NCI-H322M = assay: cells; format: cell-based; details: Homo sapiens
SK-MEL-5 = assay: NCI human tumor cell panel: SK-MEL-5 (Melanoma); format: cell-based
U251 = assay: NCI human tumor cell panel: U251 (CNS Cancer); format: cell-based
MCF7/ADR-RES = assay: NCI human tumor cell panel: MCF7/ADR-RES (Breast Cancer); format: cell-based
SK-MEL-28 = assay: NCI human tumor cell panel: SK-MEL-28 (Melanoma); format: cell-based
NCI-H460 = assay: NCI human tumor cell panel: NCI-H460 (Non-Small Cell Lung Cancer); format: cell-based
HT29 = assay: NCI human tumor cell panel: HT29 (Colon Cancer); format: cell-based
BT-549 = assay: NCI human tumor cell panel: BT-549 (Breast Cancer); format: cell-based
786-0 = assay: NCI human tumor cell panel: 786-0 (Renal Cancer); format: cell-based
MDA-N = assay: NCI human tumor cell panel: MDA-N (Breast Cancer); format: cell-based
A549/ATCC = assay: NCI human tumor cell panel: A549/ATCC (Non-Small Cell Lung Cancer); format: cell-based
EKVX = assay: NCI human tumor cell panel: EKVX (Non-Small Cell Lung Cancer); format: cell-based
[1] = read-out: Log10 GI50 (converted)
[2] = read-out: Log10 TGI (converted)

With `OCc1ccc(-c2ccc(-c3ccc(CO)[se]3)[se]2)[se]1` [compound 675247] the GI50 (MOLT-4; MOLT-4, read-out: Log10 GI50 (converted)) was 3.31 µM, the IC (TGI) (MOLT-4; MOLT-4, read-out: Log10 TGI (converted)) was 8.32 µM and the GI50 (OVCAR-3; OVCAR-3, read-out: Log10 GI50 (converted)) was 0.209 µM. For the same compound, the IC (TGI) (OVCAR-3; OVCAR-3, read-out: Log10 TGI (converted)) was 1.17 µM, the GI50 (RPMI-8226; RPMI-8226, read-out: Log10 GI50 (converted)) was 4.07 µM and the IC (TGI) (RPMI-8226; RPMI-8226, read-out: Log10 TGI) was > 100 µM. For the same compound, the GI50 (SNB-75; SNB-75, read-out: Log10 GI50 (converted)) was 14.8 µM, the IC (TGI) (SNB-75; SNB-75, read-out: Log10 TGI (converted)) was 38.9 µM and the GI50 (TK-10) was 0.138 µM. It also gave a GI50 (A498; A498, read-out: Log10 GI50 (converted)) of 0.38 µM, an IC (TGI) (A498; A498, read-out: Log10 TGI (converted)) of 1.41 µM and a GI50 (SF-539; SF-539, read-out: Log10 GI50 (converted)) of 17.4 µM. It also gave an IC (TGI) (SF-539; SF-539, read-out: Log10 TGI (converted)) of 40.7 µM, a GI50 (M14; M14, read-out: Log10 GI50 (converted)) of 3.72 µM and an IC (TGI) (M14; M14, read-out: Log10 TGI (converted)) of 12.9 µM. It also gave a GI50 (IGROV1; IGROV-1, IGROV1, read-out: Log10 GI50 (converted)) of 1.38 µM, an IC (TGI) (IGROV1; IGROV-1, IGROV1, read-out: Log10 TGI (converted)) of 6.46 µM and a GI50 (NCI-H23; NCI-H23, read-out: Log10 GI50 (converted)) of 6.61 µM. It also gave an IC (TGI) (NCI-H23; NCI-H23, read-out: Log10 TGI (converted)) of 25.1 µM, a GI50 (LOX IMVI; [1]) of 3.02 µM and an IC (TGI) (LOX IMVI; [2]) of 7.08 µM. It also gave a GI50 (SF-295; SF-295, read-out: Log10 GI50 (converted)) of 11.7 µM, an IC (TGI) (SF-295; SF-295, read-out: Log10 TGI (converted)) of 28.8 µM and a GI50 (NCI-H522; NCI-H522, read-out: Log10 GI50 (converted)) of 1.66 µM. For the same compound, the IC (TGI) (NCI-H522; NCI-H522, read-out: Log10 TGI) was 3.39 µM, the GI50 (SK-MEL-2; SK-MEL-2, read-out: Log10 GI50 (converted)) was 7.08 µM and the IC (TGI) (SK-MEL-2; SK-MEL-2, read-out: Log10 TGI (converted)) was 24 µM. The GI50 (OVCAR-8; OVCAR-8, read-out: Log10 GI50 (converted)) was 3.72 µM, the IC (TGI) (OVCAR-8; OVCAR-8, read-out: Log10 TGI (converted)) was 17.8 µM and the GI50 (UO-31; UO-31, read-out: Log10 GI50 (converted)) was 5.25 µM. For the same compound, the IC (TGI) (UO-31; UO-31, read-out: Log10 TGI (converted)) was 14.8 µM, the GI50 (HCT-116; HCT-116, read-out: Log10 GI50 (converted)) was 0.537 µM and the IC (TGI) (HCT-116; HCT-116, read-out: Log10 TGI (converted)) was 11.2 µM. For the same compound, the GI50 (ACHN; [1]) was 3.98 µM, the IC (TGI) (ACHN; [2]) was > 100 µM and the GI50 (SW-620; SW-620, read-out: Log10 GI50 (converted)) was 1.35 µM. It also gave an IC (TGI) (SW-620; SW-620, read-out: Log10 TGI (converted)) of 3.63 µM, a GI50 (MDA-MB-435; MDA-MB-435, read-out: Log10 GI50 (converted)) of 2.95 µM and an IC (TGI) (MDA-MB-435; MDA-MB-435, read-out: Log10 TGI (converted)) of 9.77 µM. For the same compound, the GI50 (NCI-H322M; [1]) was 11.2 µM, the IC (TGI) (NCI-H322M; [2]) was 24.5 µM and the GI50 (SK-MEL-5; SK-MEL-5, read-out: Log10 GI50 (converted)) was 1.45 µM. It also gave an IC (TGI) (SK-MEL-5; SK-MEL-5, read-out: Log10 TGI (converted)) of 3.02 µM, a GI50 (U251; U-251, U251, read-out: Log10 GI50 (converted)) of 0.468 µM and an IC (TGI) (U251; U-251, U251, read-out: Log10 TGI (converted)) of 12.3 µM. It also gave a GI50 (MCF7/ADR-RES; [1]) of 3.8 µM, an IC (TGI) (MCF7/ADR-RES; [2]) of 26.3 µM and a GI50 (SK-MEL-28; SK-MEL-28, read-out: Log10 GI50 (converted)) of 5.13 µM. The IC (TGI) (SK-MEL-28; SK-MEL-28, read-out: Log10 TGI (converted)) was > 100 µM, the GI50 (NCI-H460; NCI-H460, read-out: Log10 GI50 (converted)) was 0.525 µM and the IC (TGI) (NCI-H460; NCI-H460, read-out: Log10 TGI (converted)) was 10 µM. The GI50 (HT29; HT-29, HT29, read-out: Log10 GI50 (converted)) was 1.62 µM, the IC (TGI) (HT29; HT-29, HT29, read-out: Log10 TGI (converted)) was 7.59 µM and the GI50 (BT-549; BT-549, read-out: Log10 GI50 (converted)) was 3.39 µM. For the same compound, the IC (TGI) (BT-549; BT-549, read-out: Log10 TGI (converted)) was 14.1 µM, the GI50 (786-0; 786-0, read-out: Log10 GI50 (converted)) was 2.75 µM and the IC (TGI) (786-0; 786-0, read-out: Log10 TGI (converted)) was 6.31 µM. The GI50 (MDA-N; [1]) was 7.76 µM, the IC (TGI) (MDA-N; [2]) was 25.1 µM and the GI50 (A549/ATCC; [1]) was 4.57 µM. It also gave an IC (TGI) (A549/ATCC; [2]) of 19.5 µM, a GI50 (EKVX; [1]) of 5.01 µM and an IC (TGI) (EKVX; [2]) of 34.7 µM.
